Patent US20250288704A1, “CXCR4-LIGANDS FOR DIAGNOSTIC AND THERAPEUTIC USE AND PRECURSORS THEREOF” (priority 2021, published 2025)
Read-outs that look alike come from different tables or passages of the source. Starred links: 1 amine or outer side, 2 acyl side, 3 side chain; linkers in the order of their positions; H or OH if unused. Positions of bridges follow the written chain, without caps; N, C: chain ends. Non-standard residues stand in square brackets, D forms with d. Residues, ends and D or L forms follow the SMILES beside them. Groups on a side chain read outwards from the residue. Chains are numbered I, II in the order given. *: point of attachment. X2 = OC[C@H]1O[C@@H](O[C@H]2[C@H](O)[C@@H](O)[C@H](*)O[C@@H]2CO)[C@H](O)[C@@H](O)[C@H]1O; X7 = O=C(O)CN1CCN(CC(=O)O)CCN([C@H](CCC(=O)*)C(=O)O)CCN(CC(=O)O)CC1; Benzoyl(4-SiFtBu2) = CC(C)(C)[Si](F)(c1ccc(C(=O)*)cc1)C(C)(C)C; X5 = CC(C)(C)[Si](F)(c1ccc(C[N+](C)(C)CC(=O)*)cc1)C(C)(C)C; DOTA = O=C(O)CN1CCN(CC(=O)O)CCN(CC(=O)*)CCN(CC(=O)O)CC1; Dolaproine = CO[C@@H]([C@@H]1CCCN1)[C@@H](C)C(=O)O; Dil = CC[C@H](C)[C@H](NC)[C@@H](CC(=O)O)OC; d(γGlu) = O=C(O)[C@@H](CCC(=O)[*:2])N[*:1]; X11 = O=C1CC([*:2])C(=O)N1CCCCCC(=O)[*:1]; 2Nal = N[C@@H](Cc1ccc2ccccc2c1)C(=O)O; PABC = O=C(OCc1ccc(N[*:1])cc1)[*:2]; X10 = C[C@@H](N*)[C@@H](O)c1ccccc1; Cit = NC(=O)NCCC[C@H](N)C(=O)O; dNMeOrn = CN[C@H](CCCN)C(=O)O; NMeV = CN[C@H](C(=O)O)C(C)C; d(hCys) = N[C@H](CCS)C(=O)O; 4Amb = NCc1ccc(C(=O)O)cc1; Mercaptoacetyl = O=C(CS)*; 4Abz = Nc1ccc(C(=O)O)cc1; dDap = NC[C@@H](N)C(=O)O; CO = O=C([*:1])[*:2]; Ahx = NCCCCCC(=O)O

How the values were obtained:
CXCR4 = CXCR4 (Homo sapiens, UniProt P61073); assay: Determination of IC50: competition with 125I-Fc-131 on CXCR4-positive Jurkat cells; format: binding; set-up: CXCR4-positive Jurkat T lymphocyte cells were grown in Gibco's RPMI 1640 GlutaMAX medium; endogenous in cells; host or cells: Jurkat T lymphocyte cells (whole cells in suspension, 400.000 per tube);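 also: test compound at 10^−5 to 10^−11 M competed for 2 h at 8 °C with the radioligand on 400,000 cells per well, bound versus free activity measured by γ-counting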
Procedure: For in vitro experiments, cells were counted in a hemocytometer using trypan blue as contrast agent. The cell suspension was centrifuged, and the pellet resuspended in HBSS (+1 wt % BSA) to a concentration of 2 mio cells/mL. […] 200 μL of cell suspension (400.000 cells per well) were added to obtain a final peptide concentration range of 10^−5-10^−11 M. The tubes were cooled for 2 h at 8° C. to prevent internalization. The experiment was stopped by removal of the supernatant. 200 μL HBSS were added onto the cells, the suspension centrifuged, and the supernatant pooled with the respective first fractions. This step was repeated once more before the tubes containing the supernatants and the ones containing the cell pellets were subjected to activity measurement in the γ-counter.

[1] = Biodistribution in Jurkat tumor-bearing CB-17 SCID mice; format: in vivo; conditions: female, CB-17 SCID, mouse, in vivo, iv, total radioactivity, 1 h p.i., Jurkat xenograft, CB-17 SCID female mice
Procedure: All animal experiments were conducted in accordance with general animal welfare regulations in Germany and the institutional guidelines for the care and use of animals. To establish tumor xenografts, Jurkat cells (2-3×10^7 cells) were suspended in a mixture of Gibco's RPMI 1640 medium and Matrigel (1/1; v/v) from BD Biosciences (Heidelberg, Germany), and inoculated subcutaneously onto the right shoulder of 6-10 weeks old CB17-SCID mice from either Charles River GmbH (Sulzfeld, Germany) or the in-house mouse breeding facility. Mice were used when tumors had grown to a diameter of 5-8 mm (4-10 weeks after inoculation).
Approximately 0.5-20 MBq (0.02-0.20 nmol) of the ^125I-, ^177Lu-, ^99mTc-, ^18F- or ^68Ga-labeled ligand were injected into the tail vein of Jurkat tumor-bearing CB-17 SCID mice and the animals sacrificed after the respective biodistribution time. Selected organs were removed, weighted and measured in a γ-counter.

[2] = Octanol/PBS partition coefficient (logD7.4); format: physicochemical; conditions: n-octanol/PBS pH 7.4, radiolabeled compound
Procedure: The tubes were vortexed at maximum speed for 3 min to ensure equilibrium before centrifugation at 15.000×g for 5 min on a Biofuge 15 from Heraeus Holding GmbH (Osterode, Germany). An aliquot of 100 μL of each fraction was measured in the γ-counter and the log D7.4 calculated as follows: […]

[3] = unlabeled or cold (natGa/natLu) compound vs 125I-Fc-131, Jurkat cells

CXCR4, sequence (P61073 whole entry): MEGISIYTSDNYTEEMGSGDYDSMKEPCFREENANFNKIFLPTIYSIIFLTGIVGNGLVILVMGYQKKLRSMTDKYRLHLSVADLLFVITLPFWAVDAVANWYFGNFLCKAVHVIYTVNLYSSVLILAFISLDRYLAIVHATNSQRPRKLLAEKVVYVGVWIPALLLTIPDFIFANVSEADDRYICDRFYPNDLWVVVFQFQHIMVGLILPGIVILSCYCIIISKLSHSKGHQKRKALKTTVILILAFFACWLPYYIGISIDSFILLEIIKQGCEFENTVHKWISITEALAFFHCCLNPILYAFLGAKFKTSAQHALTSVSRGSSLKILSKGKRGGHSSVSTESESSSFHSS

Structure (SMILES): C[C@@H](NC(=O)[C@@H](CCCNC(=N)N)NC(=O)[C@@H](Cc1c[nH]cn1)NC(=O)[C@@H](CO)NC(=O)[C@@H](CO)NC(=O)[C@@H](CO)NC(=O)CS)C(=O)Nc1ccc(C(=O)NCCC[C@@H]2C(=O)N[C@@H](CCCNC(=N)N)C(=O)N[C@@H](Cc3ccc4ccccc4c3)C(=O)NCC(=O)N[C@H](Cc3ccc(O)cc3)C(=O)N2C)cc1 [Tc-CXCR4-5] (I: Mercaptoacetyl-[dS][dS][dS][dH][dR][dA][4Abz] / II: cyclo([dY][dNMeOrn]R[2Nal]G); amide I:C-II:2)
- IC50 (CXCR4): 11 ± 1.3 nM
- tissue uptake at 1 h ([1]; Adrenal, read-out: % iD/g Adrenal): 0.42 %ID/g
- tissue uptake at 1 h ([1]; Blood, read-out: % iD/g Blood): 0.65 %ID/g
- tissue uptake at 1 h ([1]; Bone, read-out: % iD/g Bone): 1.55 %ID/g
- tissue uptake at 1 h ([1]; Heart, read-out: % iD/g Heart): 0.48 %ID/g
- tissue uptake at 1 h ([1]; Intestine, read-out: % iD/g Intestine): 0.76 %ID/g
- tissue uptake at 1 h ([1]; Kidney, read-out: % iD/g Kidney): 2.89 %ID/g
- tissue uptake at 1 h ([1]; Liver, read-out: % iD/g Liver): 2.42 %ID/g
- tissue uptake at 1 h ([1]; Lung, read-out: % iD/g Lung): 1.57 %ID/g
- tissue uptake at 1 h ([1]; Muscle, read-out: % iD/g Muscle): 0.15 %ID/g
- tissue uptake at 1 h ([1]; Pancreas, read-out: % iD/g Pancreas): 0.4 %ID/g
- tissue uptake at 1 h ([1]; Spleen, read-out: % iD/g Spleen): 8.47 %ID/g
- tissue uptake at 1 h ([1]; Stomach, read-out: % iD/g Stomach): 0.7 %ID/g
- tissue uptake at 1 h ([1]; Tumor, read-out: % iD/g Tumor): 1.48 %ID/g

Structure (SMILES): C[C@@H](NC(=O)[C@@H](CCCNC(=N)N)NC(=O)[C@@H](CN)NC(=O)CCCCCNC(=O)[C@@H](CNC(=O)CN1CCN(CC(=O)O)CCN(CC(=O)O)CCN(CC(=O)O)CC1)NC(=O)[C@@H](CCS[C@@H]1O[C@H](CO)[C@@H](O[C@@H]2O[C@H](CO)[C@H](O)[C@H](O)[C@H]2O)[C@H](O)[C@H]1O)NC(=O)C[N+](C)(C)Cc1ccc([Si](F)(C(C)(C)C)C(C)(C)C)cc1)C(=O)Nc1ccc(C(=O)NCCC[C@@H]2C(=O)N[C@@H](CCCNC(=N)N)C(=O)N[C@@H](Cc3ccc4ccccc4c3)C(=O)NCC(=O)N[C@H](Cc3ccc(O)cc3)C(=O)N2C)cc1 [CXCR4-SiFA-7 [Lu]] (I: X5-[d(hCys)](X2)[dDap](DOTA)[Ahx][dDap][dR][dA][4Abz] / II: cyclo([dY][dNMeOrn]R[2Nal]G); amide I:C-II:2)
- IC50 (CXCR4; [3]): 6.05 ± 1.17 nM
- logD7.4 [2]: −2.23 ± 0.11 (7)

Structure (SMILES): C[C@@H](NC(=O)[C@@H](CCCNC(=N)N)NC(=O)[C@@H](CN)NC(=O)CCCCCNC(=O)[C@@H](CNC(=O)CC[C@H](C(=O)O)N1CCN(CC(=O)O)CCN(CC(=O)O)CCN(CC(=O)O)CC1)NC(=O)[C@@H](CNC(=O)c1ccc([Si](F)(C(C)(C)C)C(C)(C)C)cc1)NC(=O)CC[C@@H](NC(=O)N[C@H](CCC(=O)O)C(=O)O)C(=O)O)C(=O)Nc1ccc(C(=O)NCCC[C@@H]2C(=O)N[C@@H](CCCNC(=N)N)C(=O)N[C@@H](Cc3ccc4ccccc4c3)C(=O)NCC(=O)N[C@H](Cc3ccc(O)cc3)C(=O)N2C)cc1 [CXCR4-SiFA-5 [Lu]] (I: {dE-CO-d(γGlu)}-[dDap](Benzoyl(4-SiFtBu2))[dDap](X7)[Ahx][dDap][dR][dA][4Abz] / II: cyclo([dY][dNMeOrn]R[2Nal]G); amide I:C-II:2)
- IC50 (CXCR4; [3]): 45.8 ± 17.4 nM
- logD7.4 [2]: −1.73 ± 0.05 (6)

Structure (SMILES): C[C@@H](NC(=O)[C@@H](CCCNC(=N)N)NC(=O)[C@@H](CN)NC(=O)[C@@H](CNC(=O)CC[C@H](C(=O)O)N1CCN(CC(=O)O)CCN(CC(=O)O)CCN(CC(=O)O)CC1)NC(=O)[C@@H](CNC(=O)c1ccc([Si](F)(C(C)(C)C)C(C)(C)C)cc1)NC(=O)CC[C@@H](NC(=O)N[C@H](CCC(=O)O)C(=O)O)C(=O)O)C(=O)Nc1ccc(C(=O)NCCC[C@@H]2C(=O)N[C@@H](CCCNC(=N)N)C(=O)N[C@@H](Cc3ccc4ccccc4c3)C(=O)NCC(=O)N[C@H](Cc3ccc(O)cc3)C(=O)N2C)cc1 [CXCR4-SiFA-4 [Lu]] (I: {dE-CO-d(γGlu)}-[dDap](Benzoyl(4-SiFtBu2))[dDap](X7)[dDap][dR][dA][4Abz] / II: cyclo([dY][dNMeOrn]R[2Nal]G); amide I:C-II:2)
- IC50 (CXCR4; [3]): 93.4 ± 10.2 nM
- logD7.4 [2]: −1.71 ± 0.09 (8)

Structure (SMILES): CC[C@H](C)[C@@H]([C@@H](CC(=O)N1CCC[C@H]1[C@H](OC)[C@@H](C)C(=O)N[C@H](C)[C@@H](O)c1ccccc1)OC)N(C)C(=O)[C@@H](NC(=O)[C@H](C(C)C)N(C)C(=O)OCc1ccc(NC(=O)[C@H](CCCNC(N)=O)NC(=O)[C@@H](NC(=O)CCCCCN2C(=O)CC(SCC[C@@H](NC(C)=O)C(=O)N[C@H](CNC(=O)CC[C@H](C(=O)O)N3CCN(CC(=O)O)CCN(CC(=O)O)CCN(CC(=O)O)CC3)C(=O)NCCCCCC(=O)N[C@H](CN)C(=O)N[C@H](CCCNC(=N)N)C(=O)N[C@H](C)C(=O)Nc3ccc(C(=O)NCCC[C@@H]4C(=O)N[C@@H](CCCNC(=N)N)C(=O)N[C@@H](Cc5ccc6ccccc6c5)C(=O)NCC(=O)N[C@H](Cc5ccc(O)cc5)C(=O)N4C)cc3)C2=O)C(C)C)cc1)C(C)C (some centres unmarked) [CXCR4-MMAE-4] (I: V[Cit][PABC][NMeV]V[Dil][Dolaproine]-X10 / II: Ac-[d(hCys)][dDap](X7)[Ahx][dDap][dR][dA][4Abz] / III: cyclo([2Nal]G[dY][dNMeOrn]R); linker I:N-II:1 via X11; amide II:C-III:4)
- IC50 (CXCR4): 113 ± 20 nM
- logD7.4 [2]: −1.04 ± 0.07 (8)

Structure (SMILES): C[C@@H](NC(=O)[C@@H](CCCNC(=N)N)NC(=O)[C@@H](CN)NC(=O)CCCCCNC(=O)[C@@H](CNC(=O)CC[C@H](C(=O)O)N1CCN(CC(=O)O)CCN(CC(=O)O)CCN(CC(=O)O)CC1)NC(=O)C[N+](C)(C)Cc1ccc([Si](F)(C(C)(C)C)C(C)(C)C)cc1)C(=O)Nc1ccc(C(=O)NCCC[C@@H]2C(=O)N[C@@H](CCCNC(=N)N)C(=O)N[C@@H](Cc3ccc4ccccc4c3)C(=O)NCC(=O)N[C@H](Cc3ccc(O)cc3)C(=O)N2C)cc1 [CXCR4-SiFA-6 [Lu]]
- IC50 (CXCR4; [3]): 8.29 ± 3.11 nM
- logD7.4 [2]: −0.85 ± 0.04 (6)

Structure (SMILES): C[C@@H](NC(=O)[C@@H](CCCNC(=N)N)NC(=O)[C@@H](CCCNC(=N)N)NC(=O)[C@@H](CO)NC(=O)[C@@H](CO)NC(=O)[C@@H](CO)NC(=O)CS)C(=O)Nc1ccc(C(=O)NCCC[C@@H]2C(=O)N[C@@H](CCCNC(=N)N)C(=O)N[C@@H](Cc3ccc4ccccc4c3)C(=O)NCC(=O)N[C@H](Cc3ccc(O)cc3)C(=O)N2C)cc1 [Tc-CXCR4-3] (I: Mercaptoacetyl-[dS][dS][dS][dR][dR][dA][4Abz] / II: cyclo([dY][dNMeOrn]R[2Nal]G); amide I:C-II:2)
- IC50 (CXCR4): 184 ± 25.3 nM

Structure (SMILES): C[C@@H](NC(=O)[C@@H](CCCNC(=N)N)NC(=O)[C@@H](CN)NC(=O)CN1CCN(CC(=O)O)CCN(CC(=O)O)CCN(CC(=O)O)CC1)C(=O)NCc1ccc(C(=O)NCCC[C@@H]2C(=O)N[C@@H](CCCNC(=N)N)C(=O)N[C@@H](Cc3ccc4ccccc4c3)C(=O)NCC(=O)N[C@H](Cc3ccc(O)cc3)C(=O)N2C)cc1 [CXCR4-DOTA-1 [Ga]] (cyclo([dY][dNMeOrn]([4Amb-dA-dR-dDap-DOTA])R[2Nal]G))
- IC50 (CXCR4; unlabeled or cold (natGa/natLu) compound vs 125I-Fc-131, Jurkat cells, read-out: IC50): 2.95 ± 0.59 nM
